Measurements reported in patent US9056098B2, “Hemoglobin-based oxygen carrier-containing pharmaceutical composition for cancer targeting treatment and prevention of cancer recurrence” (Vision Global Holdings Ltd., priority 2012, dated 2015).
Several values for one entry are separate records, joined by “and”; a condition that tells them apart may be missing. Equal entries are not always repeated.

What was measured:
Type in all cases: cell-based
Huh7 cells = assay: MTT cytotoxicity assay in Huh7 cells
Procedure: (§1) HepG2 and Huh7 cell lines are used. These cells are cultured in DMEM (Invitrogen) with 10% Fetal bovine serum (FBS), 100 U/ml penicillin and 100 μg/ml streptomycin at 37° C. For normoxic condition, cells are incubated with ambient O2 concentration and 5% CO2; for hypoxic condition, cells are incubated with 0.1-0.5% O2 (Quorum FC-7 automatic CO2/O2/N2 gas mixer) and 5% CO2.
(§2) Cell viability is measured using a 3-(4,5-dimethylthiazol-2-yl)-2,5-diphenyltetrazolium bromide (MTT) proliferation assay. Briefly, HepG2 or Huh7 cells are seeded in a 96-well flat-bottomed microplate (6000 cells/well) and cultured in 100 μL growth medium at 37° C. and 5% CO2 for 24 h. Cell culture medium in each well is then replaced by 100 μL cell growth medium, containing either no drug, Hb alone or Hb with another chemotherapeutics at their IC50 concentrations. Incubation of Hb for 24 h, 20 μL MTT labeling reagent (5 mg/mL in PBS solution) is added to each well for further 4 h at 37° C. The growth medium is removed gently, and 200 μL DMSO is then added to each well as solubilizing agent to dissolve the formazan crystals completely. The absorbance at the wavelength of 570 nm is measured by Multiskan EX (Thermo Electron Corporation), and each data point represents the means±SD from triplicate wells.

HepG2 cells = assay: MTT cytotoxicity assay in HepG2 cells
Procedure: as §1, §2

[1] = tested on: MCF7 cells isolated from mammospheres (cancer stem cells); assay: MTT assay on cancer stem cells from MCF7 mammospheres; settings: Hb 0.2 g/dL, Bort 0.5 μM, 5FU 5 μM
Procedure: as §2
To test sensitivity of the cancer stem cells to chemotherapeutic agent alone or to the combined therapy of hemoglobin-based oxygen carrier and the chemotherapeutic agent, different sets of chemotherapeutic agent and/or the hemoglobin-based oxygen carrier of the present invention are administered to MCF7 cells isolated from mammospheres which are obtained at later passages, e.g. passages 7 and 8. Before testing the sensitivity of the cancer stem cells, the drug resistance of CD44+/CD24− to chemotherapeutic agent is shown in FIG. 32. Unsorted MCF7 cells and CD44+/CD24− sorted cells are incubated with DMSO (as control) and 90 nM of Taxol for 16 hours and 4 days. Phase contrast images (FIG. 32) for each set of sample are taken at each time interval (16 hours and 4 days) and the sorted cells after Taxol treatment for 4 days are further tested by MTT assay (as described in Example 3) to confirm the drug resistance of these cells to chemotherapeutic agent.
The high resistance of the CSCs to chemotherapeutic agent is further confirmed by the results of MTT assays on single cells from two passages (P7 and P8) after the mammospheres are treated with different combination of chemical(s) for at least 24 hours before trypsinization of mammospheres. The mammospheres are grown under the hypoxic conditions (5% CO2, 1.1% 02) to mimic the physiological environment of a tumor. Different combination of chemical(s) used in the MTT assays include the Hb alone (0.2 g/dL), Bortezomib (“Bort”, 0.5 μM) alone, 5-fluorouracil (“5FU”, 5 μM) alone, or any combination of the above. In case of the combinational drug (i.e. Hb+at least one chemotherapeutic agent), the trypsinized cells are incubated with 0.2 g/dL of Hb for 24 hours followed by the addition of the intended chemotherapeutic agent(s) and incubated for another 24 hours. In the normalized value, “1” represents 100% of survival rate; 0.75 represents 75% of survival rate, etc.

[2] = tested on: CD44+/CD24− sorted MCF7 cells; assay: Taxol resistance of CD44+/CD24− sorted MCF7 cells (morphology, MTT); settings: 90 nM
Procedure: as §2
In order to test the effect of hemoglobin-based oxygen carrier on the cancer stem cells in a tumor, the MCF7 cells are incubated under hypoxic condition (5% CO2 and 1.1% O2) for 9-20 days before passing to the cell sorter where two filters are used: PE-A for CD24 marker while APC-A for CD44 marker. Quadrant 1 where cells are positive to CD44 and negative to CD24 (FIG. 31) are sorted for further analysis. […]

[3] = Homo sapiens, Huh-7, Huh7 hypoxic
[4] = Homo sapiens, Huh-7, Huh7 normoxic
[5] = Homo sapiens, HepG2, HepG2 hypoxic
[6] = Homo sapiens, HepG2, HepG2 normoxic
[7] = Mammosphere (P7) under Hypoxic condition
[8] = Mammosphere (P8) under Hypoxic condition

CC(C)C[C@H](NC(=O)[C@H](Cc1ccccc1)NC(=O)c1cnccn1)B(O)O [Bortezomib]
IC50 (Huh7 cells; [3]): 60 µM | IC50 (Huh7 cells; [4]): 55 µM | resistance of Huh7 cells as compared to HepG2 cells (Huh7 cells; hypoxic condition): 86 fold | resistance of Huh7 cells as compared to HepG2 cells (Huh7 cells; normoxic condition): 110 fold | IC50 (HepG2 cells; [5]): 0.7 µM | IC50 (HepG2 cells; [6]): 0.5 µM | Absorbance (replicates) [1, 7]: 0.178 and 0.172 and 0.177 and 0.163 and 0.174 | Normalized absorbance (replicates), 1 represents 100% of survival rate [1, 7]: 0.8624 and 0.9206 and 0.9418 and 0.9101 and 0.9365 | Normalized absorbance Avg, 1 represents 100% of survival rate [1, 7]: 0.9143 | Absorbance (replicates) [1, 8]: 0.169 and 0.166 and 0.159 and 0.155 | Normalized absorbance (replicates), 1 represents 100% of survival rate [1, 8]: 0.8086 and 0.7943 and 0.7608 and 0.7416 | Normalized absorbance Avg, 1 represents 100% of survival rate [1, 8]: 0.7763

CC(=O)O[C@H]1C(=O)[C@@]2(C)[C@H]([C@H](OC(=O)c3ccccc3)[C@]3(O)C[C@H](OC(=O)[C@H](O)[C@@H](NC(=O)c4ccccc4)c4ccccc4)C(C)=C1C3(C)C)[C@]1(OC(C)=O)CO[C@@H]1C[C@@H]2O [Taxol]
survival (MTT) ([2]; 4 days): about 96% | mammosphere formation ([2]; both unsorted and CD44+/CD24− sorted cells): seem to be inhibited

COc1cccc2c1C(=O)c1c(O)c3c(c(O)c1C2=O)C[C@@](O)(C(=O)CO)C[C@@H]3O[C@H]1C[C@H](N)[C@H](O)[C@H](C)O1 [Doxorubicin]
IC50 (Huh7 cells; [3]): 6 µM | IC50 (Huh7 cells; [4]): 5 µM | IC50 (HepG2 cells; [5]): 30 µM | IC50 (HepG2 cells; [6]): 10 µM

O=c1[nH]cc(F)c(=O)[nH]1 [5FU, 5-fluorouracil]
IC50 (Huh7 cells; [3]): 4000 µM | IC50 (Huh7 cells; [4]): 3500 µM | IC50 (HepG2 cells; [5]): 4000 µM | IC50 (HepG2 cells; [6]): 4000 µM | Absorbance (replicates) [1, 7]: 0.171 and 0.197 and 0.139 and 0.143 and 0.169 | Normalized absorbance (replicates), 1 represents 100% of survival rate [1, 7]: 0.7566 and 0.8942 and 0.9048 and 1.042 and 0.7355 | Normalized absorbance Avg, 1 represents 100% of survival rate [1, 7]: 0.8667 | Absorbance (replicates) [1, 8]: 0.155 and 0.165 and 0.129 and 0.157 | Normalized absorbance (replicates), 1 represents 100% of survival rate [1, 8]: 0.7416 and 0.7895 and 0.6172 and 0.7512 | Normalized absorbance Avg, 1 represents 100% of survival rate [1, 8]: 0.7249

N.N.[Cl][Pt][Cl] [Cisplatin]
IC50 (Huh7 cells; Huh7 hypoxic): 100 µM | IC50 (Huh7 cells; Huh7 normoxic): 70 µM | IC50 (HepG2 cells; HepG2 hypoxic): 170 µM | IC50 (HepG2 cells; HepG2 normoxic): 130 µM
